# Results: patent US20260174739A1 (priority 2022, published 2026)
# Counter-ions that a name gives are not always drawn.
# Biological target: human SERT (Homo sapiens, UniProt P31645)
# Assay: Inhibitory activity assay against 5-HT transporter (neurotransmitter transporter uptake assay kit)
# Format: cell-based
# Settings: HEK-293 cells overexpressing human SERT; read-out: 5-HTT (IC50)
# Experimental: In HEK-293 cells overexpressing human SERT, the transporter inhibitory effect of the test compound on human SERT was assayed using a Neurotransmitter transporter uptake assay kit (Molecular devices).
# human SERT, sequence (P31645 whole entry): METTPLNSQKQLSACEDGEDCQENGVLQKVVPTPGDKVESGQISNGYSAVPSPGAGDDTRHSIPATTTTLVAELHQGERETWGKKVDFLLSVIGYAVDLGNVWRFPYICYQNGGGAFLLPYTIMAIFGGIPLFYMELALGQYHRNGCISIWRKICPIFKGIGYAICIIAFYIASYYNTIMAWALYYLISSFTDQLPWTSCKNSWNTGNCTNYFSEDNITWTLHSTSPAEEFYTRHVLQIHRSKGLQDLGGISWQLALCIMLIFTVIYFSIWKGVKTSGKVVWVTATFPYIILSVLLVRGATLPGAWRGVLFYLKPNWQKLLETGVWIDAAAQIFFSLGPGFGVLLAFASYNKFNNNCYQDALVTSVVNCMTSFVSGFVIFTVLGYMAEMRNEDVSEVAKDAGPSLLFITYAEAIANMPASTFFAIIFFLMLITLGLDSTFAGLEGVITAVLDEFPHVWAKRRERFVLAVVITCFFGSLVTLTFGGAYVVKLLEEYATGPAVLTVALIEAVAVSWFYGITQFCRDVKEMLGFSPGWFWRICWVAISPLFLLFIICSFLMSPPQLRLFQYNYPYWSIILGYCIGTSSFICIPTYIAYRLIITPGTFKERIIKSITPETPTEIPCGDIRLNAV
row,Structure (SMILES),IC50
1,Nc1nc2c(s1)C[C@@](N)(c1ccccc1)CC2 [R-A1],1000 nM
2,"CCNc1nc2c(s1)CC(N)(c1cccc(OC)c1)CC2 (racemic) [rac-A301, N^2-ethyl-6-(3-methoxyphenyl)-4,5,6,7-tetrahydrobenzo[d]thiazole-2,6-diamine hydrochloride]",4000 nM
3,"COc1cccc(C2(N)CCc3nc(C4CC4)sc3C2)c1 (racemic) [rac-A316, 2-cyclopropyl-6-(3-methoxyphenyl)-4,5,6,7-tetrahydrobenzo[d]thiazol-6-amine hydrochloride]",4000 nM
4,"COc1cccc(C2(N)CCc3c(sc(=O)n3C)C2)c1 (racemic) [rac-A299, 6-amino-6-(3-methoxyphenyl)-3-methyl-4,5,6,7-tetrahydrobenzo[d]thiazol-2-one hydrochloride]",520 nM
5,"COc1cccc(C2(N)CCc3nc(Br)sc3C2)c1 (racemic) [rac-A318, 2-bromo-6-(3-methoxyphenyl)-4,5,6,7-tetrahydrobenzo[d]thiazol-6-amine hydrochloride]",4600 nM
6,"Nc1nc2c(s1)CC(N)(c1ccc3ccccc3c1)CC2 (racemic) [rac-A118, 6-(naphthalen-2-yl)-4,5,6,7-tetrahydrobenzothiazole-2,6-diamine]",2000 nM
7,N[C@]1(c2ccccc2)CCc2ncsc2C1 [R-A14],67 nM
8,"NC1(c2ccccc2)CCc2oncc2C1 (racemic) [rac-A145, phenyl-4,5,6,7-tetrahydrobenzo[d]isoxazol-5-amine]",600 nM
9,"CSc1cccc(C2(N)CCc3nc(N)sc3C2)c1 (racemic) [rac-A304, 6-(3-methylthio)phenyl-4,5,6,7-tetrahydrobenzo[d]thiazole-2,6-diamine]",3700 nM
10,"NC1(c2ccc(F)cc2)CCCc2cn[nH]c21 (racemic) [rac-A222, 7-(4-fluorophenyl)-4,5,6,7-tetrahydro-1H-indazol-7-amine]",10000 nM
11,"NC1(c2ccccc2)CCc2scnc2C1 (racemic) [rac-A134, 5-phenyl-4,5,6,7-tetrahydrobenzo[d]thiazol-5-amine]",17000 nM
12,"COc1ccc(C2(N)CCc3nc(N)sc3C2)cc1 (racemic) [rac-A89, 6-(4-methoxyphenyl)-4,5,6,7-tetrahydrobenzothiazole-2,6-diamine]",7600 nM
13,"COc1cccc(C2(N)CCc3nc(NC(C)=O)sc3C2)c1 (racemic) [rac-A300, N-(6-amino-6-(3-methoxyphenyl)-4,5,6,7-tetrahydrobenzo[d]thiazol-2-yl)acetamide]",2100 nM
14,"CNC1(c2ccc(OC)c(OC)c2)CCc2nc(N)sc2C1 (racemic) [rac-A254, 6-(3,4-dimethoxyphenyl)-N^6-methyl-4,5,6,7-tetrahydrobenzo[d]thiazole-2,6-diamine]",2000 nM
15,"COc1cccc(C2(N)CCc3nc(O)sc3C2)c1 (racemic) [rac-A262, 6-amino-6-(3-methoxyphenyl)-4,5,6,7-tetrahydrobenzo[d]thiazol-2-ol]",140 nM
16,"CNC1(c2cccc(C(F)(F)F)c2)CCc2nc(N)sc2C1 (racemic) [rac-A94, 6-(3-trifluoromethylphenyl)-N^6-methyl-4,5,6,7-tetrahydrobenzothiazole-2,6-diamine hydrobromide]",4300 nM
17,"NC1(c2ccccc2)CCc2nc(O)sc2C1 (racemic) [rac-A8, 6-amino-6-phenyl-4,5,6,7-tetrahydrobenzothiazol-2-ol]",7 nM
18,"CNC1(c2ccc(F)cc2F)CCc2nc(N)sc2C1 (racemic) [rac-A236, 6-(2,4-difluorophenyl)-N^6-methyl-4,5,6,7-tetrahydrobenzo[d]thiazole-2,6-diamine]",2800 nM
19,"COc1cccc(C2(N)CCc3nc(N)sc3C2)n1 (racemic) [rac-A310, 6-(6-methoxypyridin-2-yl)-4,5,6,7-tetrahydrobenzo[d]thiazole-2,6-diamine]",16000 nM
20,"CNC1(c2cccc(OC)c2)CCc2nc(N)sc2C1 (racemic) [rac-A88, 6-(3-methoxyphenyl)-N^6-methyl-4,5,6,7-tetrahydrobenzothiazole-2,6-diamine]",900 nM
21,"COc1cccc(C2(N)CCc3nc(-c4ccccc4)sc3C2)c1 (racemic) [rac-A319, 6-(3-methoxyphenyl)-2-phenyl-4,5,6,7-tetrahydrobenzo[d]thiazol-6-amine hydrochloride]",980 nM

row,Structure (SMILES),IC50
1,"NC1(c2ccccc2)CCc2nnsc2C1 (racemic) [rac-A244, 6-phenyl-4,5,6,7-tetrahydrobenzo[d][1,2,3]thiadiazol-6-amine hydrochloride]",1500 nM
2,"CN(C)C1(c2ccccc2)CCc2sc(N)nc2C1 (racemic) [rac-A249, N^5, N^5-dimethyl-5-phenyl-4,5,6,7-tetrahydrobenzo[d]thiazole-2,5-diamine]",1000 nM
3,"CNC1(c2ccccc2F)CCc2nc(N)sc2C1 (racemic) [rac-A81, 6-(2-fluorophenyl)-N^6-methyl-4,5,6,7-tetrahydrobenzothiazole-2,6-diamine]",94 nM
4,"Cc1ccccc1C1(N)CCc2nc(N)sc2C1 (racemic) [rac-A100, 6-(2-methylphenyl)-4,5,6,7-tetrahydrobenzothiazole-2,6-diamine]",17000 nM
5,"CN(Cc1ccccc1)C1(c2ccccc2)CCc2[nH]ncc2C1 (racemic) [rac-A68, N-benzyl-N-methyl-5-phenyl-4,5,6,7-tetrahydro-1H-indazol-5-amine]",700 nM
6,"CNC1(c2ccc(F)cc2)CCc2ncsc2C1 (racemic) [rac-A294, 6-(4-fluorophenyl)-N-methyl-4,5,6,7-tetrahydrobenzo[d]thiazol-6-amine]",1100 nM
7,"NC1(c2cccc(O)c2)CCc2nc(O)sc2C1 (racemic) [rac-A306, 6-amino-6-(3-hydroxyphenyl)-4,5,6,7-tetrahydrobenzo[d]thiazol-2-ol]",200 nM
8,"Nc1nc2c(s1)CC(N)(c1cccnc1)CC2 (racemic) [rac-A98, 6-(pyridin-3-yl)-4,5,6,7-tetrahydrobenzothiazole-2,6-diamine]",16000 nM
9,"CCOc1cccc(C2(N)CCc3nc(O)sc3C2)c1 (racemic) [rac-A295, 6-amino-6-(3-ethoxyphenyl)-4,5,6,7-tetrahydrobenzo[d]thiazol-2-ol hydrochloride]",110 nM
10,"CCOc1nc2c(s1)CC(N)(c1ccccc1)CC2 (racemic) [rac-A257, 2-ethoxy-6-phenyl-4,5,6,7-tetrahydrobenzo[d]thiazol-6-amine]",300 nM
11,"CNC1(c2ccccc2)CCc2nc(O)sc2C1 (racemic) [rac-A279, 6-(methylamino)-6-phenyl-4,5,6,7-tetrahydrobenzo[d]thiazol-2-ol]",28 nM
12,"Nc1nc2c(s1)CC(N)(c1ccc(F)cc1F)CC2 (racemic) [rac-A235, 6-(2,4-difluorophenyl)-4,5,6,7-tetrahydrobenzo[d]thiazole-2,6-diamine]",5900 nM
13,"CN(C)C1(c2ccccc2)CCc2ncsc2C1 (racemic) [rac-A233, N,N-dimethyl-6-phenyl-4,5,6,7-tetrahydrobenzo[d]thiazol-6-amine]",300 nM
14,"CCOc1cccc([C@@]2(N)CCc3nc(N)sc3C2)c1 [R-A228, (R)-6-(3-ethoxyphenyl)-4,5,6,7-tetrahydrobenzo[d]thiazole-2,6-diamine]",2900 nM
15,"COc1cccc(C2(N)CCc3nc(C(N)=O)sc3C2)c1 (racemic) [rac-A315, 6-amino-6-(3-methoxyphenyl)-4,5,6,7-tetrahydrobenzo[d]thiazole-2-formamide]",6800 nM
16,N#Cc1cccc(C2(N)CCc3nc(N)sc3C2)c1 (racemic),8900 nM
17,"COc1cccc(C2(N)CCc3nc(C(C)=O)sc3C2)c1 (racemic) [rac-A314, 1-(6-amino-6-(3-methoxyphenyl)-4,5,6,7-tetrahydrobenzo[d]thiazol-2-yl)ethan-1-one hydrochloride]",5600 nM
18,"COc1cccc(C2(N)CCc3nc(OC)sc3C2)c1 (racemic) [rac-A317, 2-methoxy-6-(3-methoxyphenyl)-4,5,6,7-tetrahydrobenzo[d]thiazol-6-amine]",5100 nM
19,"CNC1(c2cccc(OC)c2)CCc2ncsc2C1 (racemic) [rac-A273, 6-(3-methoxyphenyl)-N-methyl-4,5,6,7-tetrahydrobenzo[d]thiazol-6-amine hydrochloride]",1000 nM
20,"NC1(c2ccccc2)CCc2nc(C(F)(F)F)sc2C1 (racemic) [rac-A131, 6-phenyl-2-(trifluoromethyl)-4,5,6,7-tetrahydrobenzo[d]thiazol-6-amine hydrochloride]",3600 nM
21,"COc1nc2c(s1)CC(N)(c1ccccc1)CC2 (racemic) [rac-A225, 2-methoxy-6-phenyl-4,5,6,7-tetrahydrobenzo[d]thiazol-6-amine]",1000 nM
